Source: the kinase profiling compilation of Christmann-Franck et al. (2016)
Values belong to the compound of their own block, whether it stands above or below them.

Columns and labels:
Assay in all cases: radiometric filter-binding kinase assay
PKN2 (human) = PKN2 (human) (UniProt Q16513)
IKBKE (human) = IKBKE (human) (UniProt Q14164)
RPS6KA1 KD1 KD2 (human) = RPS6KA1 KD1 KD2 (human) (UniProt Q15418)
EPHB4 (human) = EPHB4 (human) (UniProt P54760)
CLK2 (human) = CLK2 (human) (UniProt P49760)
ROCK2 (rat) = conditions: accession and sequence are those of the human protein
NEK2 (human) = NEK2 (human) (UniProt P51955)
MAPK14 (human) = MAPK14 (human) (UniProt Q16539)
MAP3K7 TAB1 (human) = MAP3K7 TAB1 (human) (UniProt Q15750+O43318)
TAOK1 (human) = TAOK1 (human) (UniProt Q7L7X3)
EPHA2 (human) = EPHA2 (human) (UniProt P29317)
PIM1 (human) = PIM1 (human) (UniProt P11309)
MARK1 (human) = MARK1 (human) (UniProt Q9P0L2)
MARK2 (human) = MARK2 (human) (UniProt Q7KZI7)
MYLK (human) = MYLK (human) (UniProt Q15746)
MELK (human) = MELK (human) (UniProt Q14680)
MAPKAPK5 (human) = MAPKAPK5 (human) (UniProt Q8IW41)
PRKCA (human) = PRKCA (human) (UniProt P17252)
TTK (human) = TTK (human) (UniProt P33981)
FLT1 (human) = FLT1 (human) (UniProt P17948)
STK3 (human) = STK3 (human) (UniProt Q13188)
MAPK12 (human) = MAPK12 (human) (UniProt P53778)
[1] = test system: RPS6KB1 (human), P23443 [T412E]
HIPK2 (human) = HIPK2 (human) (UniProt Q9H2X6)
IRAK4 (human) = IRAK4 (human) (UniProt Q9NWZ3)
MAPKAPK2 (human) = MAPKAPK2 (human) (UniProt P49137)
PIM3 (human) = PIM3 (human) (UniProt Q86V86)
DYRK2 (human) = DYRK2 (human) (UniProt Q92630)
DAPK1 (human) = DAPK1 (human) (UniProt P53355)
[2] = test system: SGK1 (human), O00141 [S422D]
CHEK2 (human) = CHEK2 (human) (UniProt O96017)
GCK (human) = GCK (human) (UniProt Q12851)
EPHB2 (human) = EPHB2 (human) (UniProt P29323)
DYRK3 (human) = DYRK3 (human) (UniProt O43781)
EPHB1 (human) = EPHB1 (human) (UniProt P54762)

Sequence of FLT1 (human) (P17948 whole entry, looked up): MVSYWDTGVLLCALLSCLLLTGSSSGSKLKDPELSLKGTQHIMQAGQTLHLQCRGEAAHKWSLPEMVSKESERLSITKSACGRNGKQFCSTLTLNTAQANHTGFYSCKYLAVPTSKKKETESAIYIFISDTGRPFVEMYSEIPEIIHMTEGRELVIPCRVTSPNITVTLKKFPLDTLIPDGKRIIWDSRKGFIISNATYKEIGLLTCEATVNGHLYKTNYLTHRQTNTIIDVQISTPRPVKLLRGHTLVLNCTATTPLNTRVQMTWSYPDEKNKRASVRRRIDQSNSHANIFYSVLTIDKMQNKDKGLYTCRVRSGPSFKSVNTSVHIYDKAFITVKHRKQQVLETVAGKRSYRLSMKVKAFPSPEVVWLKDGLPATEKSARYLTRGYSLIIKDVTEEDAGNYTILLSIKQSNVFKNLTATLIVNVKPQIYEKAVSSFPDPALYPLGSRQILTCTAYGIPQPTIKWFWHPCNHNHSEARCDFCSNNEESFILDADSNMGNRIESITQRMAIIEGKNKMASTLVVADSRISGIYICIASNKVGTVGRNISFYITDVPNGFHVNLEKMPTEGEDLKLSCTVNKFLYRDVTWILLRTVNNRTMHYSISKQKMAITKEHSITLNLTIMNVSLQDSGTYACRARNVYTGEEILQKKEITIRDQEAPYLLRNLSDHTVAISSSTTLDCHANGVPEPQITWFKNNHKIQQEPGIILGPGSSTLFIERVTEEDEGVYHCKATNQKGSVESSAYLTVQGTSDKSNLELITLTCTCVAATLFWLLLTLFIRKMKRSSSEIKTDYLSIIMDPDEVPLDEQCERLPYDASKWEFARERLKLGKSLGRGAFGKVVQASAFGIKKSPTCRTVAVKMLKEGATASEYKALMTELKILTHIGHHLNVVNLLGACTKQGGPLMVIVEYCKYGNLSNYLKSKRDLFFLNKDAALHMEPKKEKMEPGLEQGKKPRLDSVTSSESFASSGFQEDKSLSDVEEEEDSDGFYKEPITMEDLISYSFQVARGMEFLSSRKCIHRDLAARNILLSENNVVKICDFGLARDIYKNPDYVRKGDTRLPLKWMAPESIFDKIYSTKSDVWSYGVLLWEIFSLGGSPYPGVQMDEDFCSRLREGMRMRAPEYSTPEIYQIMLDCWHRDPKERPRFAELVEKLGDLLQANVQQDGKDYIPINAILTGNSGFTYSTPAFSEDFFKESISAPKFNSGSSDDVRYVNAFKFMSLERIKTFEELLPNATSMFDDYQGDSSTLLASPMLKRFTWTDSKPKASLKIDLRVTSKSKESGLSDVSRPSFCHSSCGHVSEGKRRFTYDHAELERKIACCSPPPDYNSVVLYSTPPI
Sequence of TAOK1 (human) (Q7L7X3 whole entry, looked up): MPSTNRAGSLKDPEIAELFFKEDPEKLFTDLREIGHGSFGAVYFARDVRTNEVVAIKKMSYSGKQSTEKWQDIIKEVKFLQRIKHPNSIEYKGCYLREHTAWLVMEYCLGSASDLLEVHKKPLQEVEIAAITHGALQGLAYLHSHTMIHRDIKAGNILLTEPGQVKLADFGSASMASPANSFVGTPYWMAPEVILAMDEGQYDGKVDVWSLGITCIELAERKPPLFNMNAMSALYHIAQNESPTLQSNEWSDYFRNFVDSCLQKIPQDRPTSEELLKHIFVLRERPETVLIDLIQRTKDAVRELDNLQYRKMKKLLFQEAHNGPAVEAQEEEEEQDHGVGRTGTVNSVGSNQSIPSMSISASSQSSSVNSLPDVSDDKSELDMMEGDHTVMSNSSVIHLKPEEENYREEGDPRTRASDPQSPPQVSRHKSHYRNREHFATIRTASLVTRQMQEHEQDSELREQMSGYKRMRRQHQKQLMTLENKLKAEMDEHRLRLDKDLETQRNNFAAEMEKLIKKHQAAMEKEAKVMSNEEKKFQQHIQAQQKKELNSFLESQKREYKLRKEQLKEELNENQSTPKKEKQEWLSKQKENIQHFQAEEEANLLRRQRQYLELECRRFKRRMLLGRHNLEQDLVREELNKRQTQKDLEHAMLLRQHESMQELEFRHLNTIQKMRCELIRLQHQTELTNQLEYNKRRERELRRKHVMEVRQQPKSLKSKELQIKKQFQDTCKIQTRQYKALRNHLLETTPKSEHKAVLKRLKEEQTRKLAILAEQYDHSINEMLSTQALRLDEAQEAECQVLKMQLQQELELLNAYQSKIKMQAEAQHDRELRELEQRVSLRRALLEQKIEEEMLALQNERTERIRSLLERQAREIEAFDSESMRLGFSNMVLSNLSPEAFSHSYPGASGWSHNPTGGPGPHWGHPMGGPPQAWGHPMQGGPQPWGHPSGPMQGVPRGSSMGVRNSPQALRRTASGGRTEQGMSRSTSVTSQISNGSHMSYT
Sequence of IKBKE (human) (Q14164 whole entry, looked up): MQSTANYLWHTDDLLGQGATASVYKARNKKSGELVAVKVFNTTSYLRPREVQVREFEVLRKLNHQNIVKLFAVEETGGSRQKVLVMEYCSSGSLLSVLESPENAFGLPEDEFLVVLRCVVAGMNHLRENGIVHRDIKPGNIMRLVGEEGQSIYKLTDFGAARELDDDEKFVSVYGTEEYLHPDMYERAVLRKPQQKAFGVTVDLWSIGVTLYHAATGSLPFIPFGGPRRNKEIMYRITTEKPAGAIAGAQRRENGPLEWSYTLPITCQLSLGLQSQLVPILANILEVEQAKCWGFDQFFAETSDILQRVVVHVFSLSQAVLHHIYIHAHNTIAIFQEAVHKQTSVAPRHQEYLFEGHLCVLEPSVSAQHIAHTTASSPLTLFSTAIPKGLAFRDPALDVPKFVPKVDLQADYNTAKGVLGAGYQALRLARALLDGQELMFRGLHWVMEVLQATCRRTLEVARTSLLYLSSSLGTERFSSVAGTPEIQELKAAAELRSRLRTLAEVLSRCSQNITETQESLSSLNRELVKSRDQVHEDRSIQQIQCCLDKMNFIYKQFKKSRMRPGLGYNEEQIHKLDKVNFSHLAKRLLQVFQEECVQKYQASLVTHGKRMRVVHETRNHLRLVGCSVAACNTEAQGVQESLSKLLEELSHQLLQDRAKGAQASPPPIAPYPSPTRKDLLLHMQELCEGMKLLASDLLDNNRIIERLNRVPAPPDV
Sequence of RPS6KB1 (human), P23443 [T412E] (P23443 whole entry T412E, looked up): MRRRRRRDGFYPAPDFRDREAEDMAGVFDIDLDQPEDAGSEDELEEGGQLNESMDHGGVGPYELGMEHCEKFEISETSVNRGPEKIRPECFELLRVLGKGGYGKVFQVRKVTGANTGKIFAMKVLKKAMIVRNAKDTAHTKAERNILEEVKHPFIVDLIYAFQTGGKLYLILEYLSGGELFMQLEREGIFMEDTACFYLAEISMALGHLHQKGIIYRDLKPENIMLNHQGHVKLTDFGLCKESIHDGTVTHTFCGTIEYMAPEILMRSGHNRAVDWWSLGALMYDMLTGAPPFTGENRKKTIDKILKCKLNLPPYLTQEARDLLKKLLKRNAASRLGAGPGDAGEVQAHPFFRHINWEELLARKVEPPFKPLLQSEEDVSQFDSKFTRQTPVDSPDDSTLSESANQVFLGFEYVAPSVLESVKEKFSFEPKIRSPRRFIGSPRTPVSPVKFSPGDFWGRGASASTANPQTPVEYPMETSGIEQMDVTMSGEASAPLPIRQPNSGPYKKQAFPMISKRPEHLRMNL
Sequence of EPHB2 (human) (P29323 whole entry, looked up): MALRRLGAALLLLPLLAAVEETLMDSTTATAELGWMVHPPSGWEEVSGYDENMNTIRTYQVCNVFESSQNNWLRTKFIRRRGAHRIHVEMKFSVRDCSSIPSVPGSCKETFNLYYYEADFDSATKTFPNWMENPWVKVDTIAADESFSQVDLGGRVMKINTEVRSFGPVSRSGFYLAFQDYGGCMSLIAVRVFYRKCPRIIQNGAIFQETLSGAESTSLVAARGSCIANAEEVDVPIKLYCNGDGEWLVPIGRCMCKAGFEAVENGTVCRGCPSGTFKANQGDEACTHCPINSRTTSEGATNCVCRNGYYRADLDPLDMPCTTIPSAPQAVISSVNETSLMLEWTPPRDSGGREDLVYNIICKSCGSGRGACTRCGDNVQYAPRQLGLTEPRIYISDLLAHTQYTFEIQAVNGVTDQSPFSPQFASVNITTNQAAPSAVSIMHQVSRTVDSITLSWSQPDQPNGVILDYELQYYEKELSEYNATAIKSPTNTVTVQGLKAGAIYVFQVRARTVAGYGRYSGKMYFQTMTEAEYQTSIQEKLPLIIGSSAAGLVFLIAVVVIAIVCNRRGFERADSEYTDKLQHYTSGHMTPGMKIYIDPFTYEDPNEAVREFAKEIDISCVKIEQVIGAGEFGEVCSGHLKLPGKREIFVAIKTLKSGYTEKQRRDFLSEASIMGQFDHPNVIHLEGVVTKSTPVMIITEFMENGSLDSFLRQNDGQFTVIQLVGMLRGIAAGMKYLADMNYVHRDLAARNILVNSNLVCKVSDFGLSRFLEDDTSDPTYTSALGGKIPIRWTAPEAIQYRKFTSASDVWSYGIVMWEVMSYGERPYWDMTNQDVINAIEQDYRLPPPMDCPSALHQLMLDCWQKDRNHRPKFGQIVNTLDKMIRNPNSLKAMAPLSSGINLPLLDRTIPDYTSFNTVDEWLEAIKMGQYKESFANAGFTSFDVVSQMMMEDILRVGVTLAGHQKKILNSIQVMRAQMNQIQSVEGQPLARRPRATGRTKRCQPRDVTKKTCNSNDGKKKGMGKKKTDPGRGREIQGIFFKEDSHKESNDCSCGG

residual activity (PKN2 (human); compound 0.1 µM): 65%
residual activity (PKN2 (human); compound 1.0 µM): 69%
residual activity (PKN2 (human); compound 10.0 µM): 37%
residual activity (IKBKE (human); compound 0.1 µM): 87%
residual activity (IKBKE (human); compound 1.0 µM): 89%
residual activity (IKBKE (human); compound 10.0 µM): 56%
residual activity (RPS6KA1 KD1 KD2 (human); compound 0.1 µM): 86%
residual activity (RPS6KA1 KD1 KD2 (human); compound 1.0 µM): 79%
residual activity (RPS6KA1 KD1 KD2 (human); compound 10.0 µM): 29%
residual activity (EPHB4 (human); compound 0.1 µM): 96%
residual activity (EPHB4 (human); compound 1.0 µM): 89%
residual activity (EPHB4 (human); compound 10.0 µM): 46%
residual activity (CLK2 (human); compound 0.1 µM): 67%
residual activity (CLK2 (human); compound 1.0 µM): 21%
residual activity (CLK2 (human); compound 10.0 µM): 5%
residual activity (ROCK2 (rat); compound 0.1 µM): 98%
residual activity (ROCK2 (rat); compound 1.0 µM): 86%
residual activity (ROCK2 (rat); compound 10.0 µM): 85%
residual activity (NEK2 (human); compound 0.1 µM): 118%
residual activity (NEK2 (human); compound 1.0 µM): 119%
residual activity (NEK2 (human); compound 10.0 µM): 79%
residual activity (MAPK14 (human); compound 0.1 µM): 78%
residual activity (MAPK14 (human); compound 1.0 µM): 84%
residual activity (MAPK14 (human); compound 10.0 µM): 75%
residual activity (MAP3K7 TAB1 (human); compound 0.1 µM): 84%
residual activity (MAP3K7 TAB1 (human); compound 1.0 µM): 44%
residual activity (MAP3K7 TAB1 (human); compound 10.0 µM): 13%
residual activity (TAOK1 (human); compound 0.1 µM): 102%
residual activity (TAOK1 (human); compound 1.0 µM): 110%
residual activity (TAOK1 (human); compound 10.0 µM): 79%
residual activity (EPHA2 (human); compound 0.1 µM): 81%
residual activity (EPHA2 (human); compound 1.0 µM): 81%
residual activity (EPHA2 (human); compound 10.0 µM): 50%
residual activity (PIM1 (human); compound 0.1 µM): 83%
residual activity (PIM1 (human); compound 1.0 µM): 83%
residual activity (PIM1 (human); compound 10.0 µM): 82%
residual activity (MARK1 (human); compound 0.1 µM): 88%
residual activity (MARK1 (human); compound 1.0 µM): 54%
residual activity (MARK1 (human); compound 10.0 µM): 14%
residual activity (MARK2 (human); compound 0.1 µM): 76%
residual activity (MARK2 (human); compound 1.0 µM): 63%
residual activity (MARK2 (human); compound 10.0 µM): 32%
residual activity (MYLK (human); compound 0.1 µM): 104%
residual activity (MYLK (human); compound 1.0 µM): 107%
residual activity (MYLK (human); compound 10.0 µM): 60%
residual activity (MELK (human); compound 0.1 µM): 81%
residual activity (MELK (human); compound 1.0 µM): 54%
residual activity (MELK (human); compound 10.0 µM): 18%
residual activity (MAPKAPK5 (human); compound 0.1 µM): 89%
residual activity (MAPKAPK5 (human); compound 1.0 µM): 100%
residual activity (MAPKAPK5 (human); compound 10.0 µM): 60%
residual activity (PRKCA (human); compound 0.1 µM): 92%
residual activity (PRKCA (human); compound 1.0 µM): 96%
residual activity (PRKCA (human); compound 10.0 µM): 88%
residual activity (TTK (human); compound 0.1 µM): 89%
residual activity (TTK (human); compound 1.0 µM): 101%
residual activity (TTK (human); compound 10.0 µM): 61%
residual activity (FLT1 (human); compound 0.1 µM): 48%
residual activity (FLT1 (human); compound 10.0 µM): 0%
residual activity (STK3 (human); compound 0.1 µM): 102%
residual activity (STK3 (human); compound 1.0 µM): 104%
residual activity (STK3 (human); compound 10.0 µM): 76%
residual activity (MAPK12 (human); compound 0.1 µM): 78%
residual activity (MAPK12 (human); compound 1.0 µM): 79%
residual activity ([1]; compound 1.0 µM): 92%
residual activity ([1]; compound 10.0 µM): 84%
residual activity (HIPK2 (human); compound 0.1 µM): 93%
residual activity (HIPK2 (human); compound 1.0 µM): 91%
residual activity (HIPK2 (human); compound 10.0 µM): 56%
residual activity (IRAK4 (human); compound 0.1 µM): 88%
residual activity (IRAK4 (human); compound 1.0 µM): 91%
residual activity (IRAK4 (human); compound 10.0 µM): 53%
residual activity (MAPKAPK2 (human); compound 0.1 µM): 81%
residual activity (MAPKAPK2 (human); compound 1.0 µM): 91%
residual activity (MAPKAPK2 (human); compound 10.0 µM): 73%
residual activity (PIM3 (human); compound 0.1 µM): 105%
residual activity (PIM3 (human); compound 1.0 µM): 103%
residual activity (PIM3 (human); compound 10.0 µM): 84%
residual activity (DYRK2 (human); compound 0.1 µM): 108%
residual activity (DYRK2 (human); compound 1.0 µM): 107%
residual activity (DYRK2 (human); compound 10.0 µM): 77%
residual activity (DAPK1 (human); compound 0.1 µM): 89%
residual activity (DAPK1 (human); compound 1.0 µM): 91%
residual activity (DAPK1 (human); compound 10.0 µM): 72%
residual activity ([2]; compound 0.1 µM): 62%
residual activity ([2]; compound 1.0 µM): 79%
residual activity ([2]; compound 10.0 µM): 70%
residual activity (CHEK2 (human); compound 0.1 µM): 99%
residual activity (CHEK2 (human); compound 1.0 µM): 103%
residual activity (CHEK2 (human); compound 10.0 µM): 59%
residual activity (GCK (human); compound 0.1 µM): 37%
residual activity (GCK (human); compound 1.0 µM): 11%
residual activity (GCK (human); compound 10.0 µM): 3%
residual activity (EPHB2 (human); compound 0.1 µM): 108%
residual activity (EPHB2 (human); compound 1.0 µM): 80%
residual activity (EPHB2 (human); compound 10.0 µM): 37%
residual activity (DYRK3 (human); compound 0.1 µM): 86%
residual activity (DYRK3 (human); compound 1.0 µM): 89%
residual activity (EPHB1 (human); compound 0.1 µM): 117%
residual activity (EPHB1 (human); compound 10.0 µM): 100%
SMILES: c1ccc2c(-c3cnn4cc(-c5ccc(N6CCNCC6)cc5)cnc34)ccnc2c1

residual activity (PKN2 (human); compound 0.1 µM): 102%
residual activity (PKN2 (human); compound 1.0 µM): 91%
residual activity (IKBKE (human); compound 0.1 µM): 120%
residual activity (IKBKE (human); compound 1.0 µM): 92%
residual activity (RPS6KA1 KD1 KD2 (human); compound 0.1 µM): 113%
residual activity (RPS6KA1 KD1 KD2 (human); compound 1.0 µM): 90%
residual activity (EPHB4 (human); compound 0.1 µM): 87%
residual activity (EPHB4 (human); compound 1.0 µM): 90%
residual activity (CLK2 (human); compound 0.1 µM): 96%
residual activity (CLK2 (human); compound 1.0 µM): 90%
residual activity (ROCK2 (rat); compound 0.1 µM): 116%
residual activity (ROCK2 (rat); compound 1.0 µM): 83%
residual activity (NEK2 (human); compound 0.1 µM): 108%
residual activity (NEK2 (human); compound 1.0 µM): 89%
residual activity (MAPK14 (human); compound 0.1 µM): 103%
residual activity (MAPK14 (human); compound 1.0 µM): 85%
residual activity (MAP3K7 TAB1 (human); compound 0.1 µM): 5%
residual activity (MAP3K7 TAB1 (human); compound 1.0 µM): 3%
residual activity (TAOK1 (human); compound 0.1 µM): 103%
residual activity (TAOK1 (human); compound 1.0 µM): 66%
residual activity (EPHA2 (human); compound 0.1 µM): 99%
residual activity (EPHA2 (human); compound 1.0 µM): 55%
residual activity (PIM1 (human); compound 0.1 µM): 102%
residual activity (PIM1 (human); compound 1.0 µM): 72%
residual activity (MARK1 (human); compound 0.1 µM): 112%
residual activity (MARK1 (human); compound 1.0 µM): 99%
residual activity (MARK2 (human); compound 0.1 µM): 109%
residual activity (MARK2 (human); compound 1.0 µM): 114%
residual activity (MYLK (human); compound 0.1 µM): 108%
residual activity (MYLK (human); compound 1.0 µM): 80%
residual activity (MELK (human); compound 0.1 µM): 95%
residual activity (MELK (human); compound 1.0 µM): 94%
residual activity (MAPKAPK5 (human); compound 0.1 µM): 66%
residual activity (MAPKAPK5 (human); compound 1.0 µM): 14%
residual activity (PRKCA (human); compound 0.1 µM): 107%
residual activity (PRKCA (human); compound 1.0 µM): 85%
residual activity (TTK (human); compound 0.1 µM): 104%
residual activity (TTK (human); compound 1.0 µM): 91%
residual activity (FLT1 (human); compound 0.1 µM): 8%
residual activity (FLT1 (human); compound 1.0 µM): 13%
residual activity (STK3 (human); compound 0.1 µM): 120%
residual activity (STK3 (human); compound 1.0 µM): 89%
residual activity (MAPK12 (human); compound 0.1 µM): 99%
residual activity (MAPK12 (human); compound 1.0 µM): 92%
residual activity ([1]; compound 0.1 µM): 112%
residual activity ([1]; compound 1.0 µM): 82%
residual activity (HIPK2 (human); compound 0.1 µM): 98%
residual activity (HIPK2 (human); compound 1.0 µM): 82%
residual activity (IRAK4 (human); compound 0.1 µM): 99%
residual activity (IRAK4 (human); compound 1.0 µM): 28%
residual activity (MAPKAPK2 (human); compound 0.1 µM): 124%
residual activity (MAPKAPK2 (human); compound 1.0 µM): 79%
residual activity (PIM3 (human); compound 0.1 µM): 126%
residual activity (PIM3 (human); compound 1.0 µM): 80%
residual activity (DYRK2 (human); compound 0.1 µM): 114%
residual activity (DYRK2 (human); compound 1.0 µM): 89%
residual activity (DAPK1 (human); compound 0.1 µM): 108%
residual activity (DAPK1 (human); compound 1.0 µM): 94%
residual activity ([2]; compound 0.1 µM): 106%
residual activity ([2]; compound 1.0 µM): 95%
residual activity (CHEK2 (human); compound 0.1 µM): 110%
residual activity (CHEK2 (human); compound 1.0 µM): 87%
residual activity (GCK (human); compound 0.1 µM): 121%
residual activity (GCK (human); compound 1.0 µM): 80%
residual activity (EPHB2 (human); compound 1.0 µM): 75%
residual activity (DYRK3 (human); compound 0.1 µM): 94%
residual activity (DYRK3 (human); compound 1.0 µM): 101%
residual activity (EPHB1 (human); compound 0.1 µM): 99%
residual activity (EPHB1 (human); compound 1.0 µM): 81%
SMILES: COc1cc(O)c2c(c1)/C=C/C[C@H](O)[C@H](O)C(=O)/C=C\C[C@H](C)OC2=O
